This note sets out measurements from US20220264910A1, “COMPOSITIONS COMPRISING AMINO ACIDS AND A FURTHER COMPONENT FOR THE SUPPLY OF AMINO ACIDS TO A MONOGASTRIC ANIMAL SUCH AS A HUMAN OR A PIG” (VETAGRO INTERNATIONAL S.R.L., priority 2019, published 2022).

The conditions of this data set: pig, in vivo, po.

Structures are written as SMILES.

As for `C/C=C/C=C/C(=O)O` [sorbic acid], the “presence of the marker in the various intestinal tracts” value is on record as “present in the various intestinal tracts only when administered in encapsulated form in the lipid matrix”. On to `COc1cc(C=O)ccc1O` [vanillin], for which the “presence of the marker in the various intestinal tracts” value is “present in the various intestinal tracts only when administered in encapsulated form in the lipid matrix”.
